Reference: PMC2232895 (The Journal of General Physiology, 2000)

Target: T1, bovine rod cGMP-gated channel alpha subunit (retinal CNG channel) (Bos taurus, UniProt Q00194)
T1 sequence (Q00194 1-690): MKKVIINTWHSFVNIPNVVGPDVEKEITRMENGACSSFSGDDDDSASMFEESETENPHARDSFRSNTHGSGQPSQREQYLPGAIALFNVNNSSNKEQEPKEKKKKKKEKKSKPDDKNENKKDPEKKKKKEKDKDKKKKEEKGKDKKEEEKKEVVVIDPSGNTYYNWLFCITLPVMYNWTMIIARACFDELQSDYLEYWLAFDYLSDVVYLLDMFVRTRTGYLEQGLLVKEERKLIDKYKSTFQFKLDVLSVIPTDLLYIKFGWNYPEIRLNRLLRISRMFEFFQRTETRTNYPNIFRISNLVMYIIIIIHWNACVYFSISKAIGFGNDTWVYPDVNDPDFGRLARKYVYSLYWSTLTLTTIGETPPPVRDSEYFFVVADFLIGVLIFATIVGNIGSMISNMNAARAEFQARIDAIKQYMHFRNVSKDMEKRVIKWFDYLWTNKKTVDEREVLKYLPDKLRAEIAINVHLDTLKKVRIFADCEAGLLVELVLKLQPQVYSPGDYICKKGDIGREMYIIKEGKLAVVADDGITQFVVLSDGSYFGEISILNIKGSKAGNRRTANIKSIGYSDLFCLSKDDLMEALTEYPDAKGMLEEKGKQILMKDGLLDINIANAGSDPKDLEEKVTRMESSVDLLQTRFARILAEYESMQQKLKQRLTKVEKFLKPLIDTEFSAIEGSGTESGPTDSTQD
Assay type: cell-based

Kd: 510 ± 40 nM
Structure (SMILES): NCCCNCCCCNCCCN [spermine]
